Where two headings read alike, the source gives them in different places.

In general, LD50 refers to the dose at which mortality reaches 50%.

Data set [1] can be described thus: acute toxicity in animals. The following applies: rat, in vivo. Set-up: species or system weiße Ratten. The text has this: (§1) Alle erfindungsgemäßen Karbonsäurederivate, die als Sterilisationsmittel zur Verwendung kommen, waren auf die akute Toxizität im Tierversuch geprüft. Die Prüfergebnisse haben ergeben, daß die angegebenen Verbindungen von schwacher oder mittlerer Toxizität sind.

Another data set relates to Sonnenblume Linie BK-373. Put plainly: field test of chemical sterilisation of sunflower pollen. It counts as in vivo. The text has this: (§2) Die gametozide Aktivität der erfindungsgemäßen Sterilisationsmittel war in Feldversuch in verschiedenen bodenklimatischen Zonen mit Teilstücken von 10 m^2 Größe in drei-- bis viermaliger Wiederholung nachgewiesen. Jedes Sterilisationsmittel wurde mindestens 5 Jahre lang geprüft.
(§3) Die Entwicklung der Perioden der Organogenese wird zytologisch überwacht. Die Behandlung von Pflanzen mit dem Sterilisationsmittel erfolgt am Anfang der fünften Periode der Organogenese nach Kupermann.
(§4) Zur Kontrolle der chemischen Sterilisation des Sonnenblumenpollens werden für jede Verbindung 45 behandelte Pflanzen jeder Wiederholung benutzt, wobei 15 Pflanzen zwecks Selbsbestäubung isoliert werden, Blutenkörbchen von 15 anderen Pflanzen mit einem Pollengemisch, gesammelt von 20 bis 25 behandelten isolierten Körbchen, bestäubt werden, und 15 Pflanzen für freie Bestäubung gelassen werden, damit das Ansetzen von Achänen mit dem Pollen der Vaterform kontrolliert werden kann.
(§5) Man beurteilt die Pollensterilität von Pflanzen der Sonnenblume nach der Pollenfertilität und -keimfahigkeit, nach den morphologischen Besonderheiten von Spermien und nach der Fähigkeit von Achänen zum Ansetzen bei der Bestäubung der behandelten isolierten Pflanzen mit dem Pollen der unbehandelten väterlischen Form. Die Läbensfähigkeit der Eizelle wird nach der Samenbildung bei behandelten Pflanzen bei freier Bestäubung der väterlichen Form bestimmt.
Die Sonnenblume Linie BK-373 werden mit einer 0,2%igen wäßrigen Emulsion von Phthalsäuredibutylester, 0,1%igen wäßrigen Emulsion von Kaliumsalz der 2-Methyl-3-zyklohexylkar- bonsäuremethylester und 0,2%igen wäßrigen Emulsion von Phthalsäurediäthylester behandelt. Die Emulsion enthält 0,01 Masse% Dodezylsulfat und 0,1 Masse% C12-C14-Kalziumalkylbenzolsulfonat.
(§6) Als Kontrolle in allen Fällen dienen Pflanzen, behandelt mit einem Verdünner ohne Sterilisationsmittel.

The subject of data set [2] is Sonnenblume Sorte Peredovik. Described as above. The following applies: V. Periode, Präparat 1,0 Masse%, 6,0 kg/ha. The data set is classed as in vivo.
Excerpt: as §2, §3, §4, §5
Pflanzen der Sonnenblume Sorte Peredovik werden in der V. […] Die Emulsion enthält 0,01 Masse% Dimethylsulfoxid und 0,1 Masse% C12-C14-Kalziumalkylbenzolsulfonat. Die Sonnenblume Linie VK-119 werden mit einer 0,2%igen wäßrigen Emulsion von Phthalsäuredibutylester, 0,1%igen wäßrigen Emulsion von Phthalsäurediäthylester, Kaliumsalz der 2-Methyl-3-zyklohexenkarbonsäure, 1%igen wäßrigen Emulsion von Natriumsalz der. 2-Methyl-3-zyklohexen- karbonsäure und 0,01%igen wäßrigen Emulsion von 2-Methyl--3-zyklohexenkarbonsäuremethylester behandelt. Die Emulsion enthält 0,01 Masse% Dimethylformamid und 0,1 Masse% C12-C14--Kalziumalkylbenzolsulfonat.
as §6

The subject of data set [3] is diploidem Roggen Sorte Belorusskaya 23. Put plainly: field test of gametocidal activity (sterilisation of anthers). Particulars: V. und VI. Periode, 1%ige wäßrige Emulsion, 6 kg/ha; for Prozentsatz des Ansetzens der Körner bei freier Bestäubung: control = 100. The data set is classed as in vivo.
Excerpt: as §2, §3
Mit dem Ahrenschieben verwirklicht man die Isolierung von Hauptähren und anderen Stockwerken in Pergamentbeuteln. Bei Weizen und Tritikale werden Einzelisolatoren verwendet. Bei Roggen schließt man je 1 Ähre von 5 bis 7 verschiedenen nebeneinander befindlichen Pflanzen in einen gemeinsamen Isolator ein. Bei Hirse wird jede Rispe getrennt isoliert. Der Sterilitätsprozentsatz (X) für Weizen, Roggen, Tritikale und Hirse wird nach der Formel [formula]
Samen von unbehandelten Kontrollpflanzen ermittelt.
Die Kornzahl in nicht isolierten Ähren von Kontrollpflanzen wird bedingt für 100% Ansetzen bei freier Bestäubung angenommen.
Um zuverlässige Angaben zu erhalten, verwendet man 20 bis 25 Isolatoren jeder Wiederholung für Weizen und Tritikale, 10 bis 15 Isolatoren jeder Wiederholung für Roggen und Hirse.
Pflanzen von diploidem Roggen Sorte Belorusskaya 23 werden in der V. und VI. Periode der Organogenese (nach Kupermann) mit einer 1%igen wäßrigen Emulsion von Phthalsäuredibutylester, Kaliumsalz der 2-Methyl-3-zyklohexenkarbonsäure behandelt. Die Emulsion enthält 0,01 Masse% Dodezylsulfat, und 0,1 Masse% C12-C14-Kalziumalkylbenzolsulfonat.
Der Verbrauch an Präparat beträgt 6 kg/ha. Als Kontrolle dienen Pflanzen, behandelt mit einem Verdünner ohne Sterilisationsmittel.

Data set [4] is described as follows: acute toxicity in animals. Particulars: mouse, in vivo, po; weiße Mäuse; einmalige Einführung in den Magen.
Excerpt: as §1

Setting [5] is: Präparat 0,01 Masse%, 0,06 kg/ha.

`CC1C=CCCC1C(=O)O` (stereo not shown) [Kaliumsalz der 2-Methyl-3-zyklohexenkarbonsäure]: the LD50 in data set [1] stood at 7660 mg/kg.
Consider `CCOC(=O)c1ccccc1C(=O)OCC` [Beispiel 116, Phthalsäurediäthylester], for which, in the data set with Sonnenblume Linie BK-373 (Präparat 0,2 Masse%, 1,2 kg/ha), the “Ansetzen der Achänen bei freier Bestäubung” value is recorded as 64,6 and the “Prozentsatz der Sterilität” value is recorded as 100,0%.
Take `CC1C=CCCC1C(=O)O` (stereo not shown) [Beispiel 105, Kaliumsalz der 2-Methyl-3-zyklohexenkarbonsäu-re]: in data set [2], the “Ansetzen der Achänen bei freier Bestäubung” value is reported as 85,0 and the “Prozentsatz der Sterilität” value is on record as 100,0%.
As for `CC1C=CCCC1C(=O)[O-].[K+]` (stereo not shown) [Beispiel 114, Kaliumsalz der 2-Methyl-3-zyklohexenkarbonsäure], in the data set on Sonnenblume Linie BK-373 (Präparat 0,1 Masse%, 0,6 kg/ha), the “Ansetzen der Achänen bei freier Bestäubung” value is reported as 62,9 and the “Prozentsatz der Sterilität” value is given as 100,0%.
Take `CC1C=CCCC1C(=O)O` (stereo not shown) [Beispiel 106, Natriumsalz der 2-Methyl-3-zyklohexenkarbonsäure]: in data set [2], the “Ansetzen der Achänen bei freier Bestäubung” value is given as 84,1 and the “Prozentsatz der Sterilität” value was 100,0%.
Consider `CCCCOC(=O)c1ccccc1C(=O)OCCCC` [Beispiel 74, Phthalsäuredibutylester], for which, in data set [3], the “Kornzahl der Ähre bei freier Bestäubung” value is 42,5, the “Kornzahl der Ähre im Isolator” value is listed as 0,0, the “Prozentsatz der Sterilität” value was 100,0% and the “Prozentsatz des Ansetzens der Körner bei freier Bestäubung” value is listed as 94,9%.
With `CCCCOC(=O)c1ccccc1C(=O)OCCCC` [Beispiel 113, Phthalsäuredibutylester], in the data set on Sonnenblume Linie BK-373 (Präparat 0,2 Masse%, 1,2 kg/ha), the “Ansetzen der Achänen bei freier Bestäubung” value was 61,5 and the “Prozentsatz der Sterilität” value is reported as 100,0%.
For `COC(=O)C1CCC=CC1C` (stereo not shown) [Beispiel 115, 2-Methyl--3-zyklohexenkarbonsäuremethylester], in the data set on Sonnenblume Linie BK-373 (setting [5]), the “Ansetzen der Achänen bei freier Bestäubung” value is recorded as 65,7 and the “Prozentsatz der Sterilität” value is 100,0%.
In the case of `CCOC(=O)c1ccccc1C(=O)OCC` [Beispiel 104, Phthalsäurediäthylester], in data set [2], the “Ansetzen der Achänen bei freier Bestäubung” value is 80,0 and the “Prozentsatz der Sterilität” value is 100,0%.
As for `CCCCOC(=O)c1ccccc1C(=O)OCCCC` [Phthalsäuredibutylester], the LD50 in data set [4] is 2840 mg/kg; in data set [1] (weiße Ratten, einmalige Einführung in den Magen (route printed for Phthalsäuredibutylester), read-out: LD50), 6670 mg/kg.
Take `CC1C=CCCC1C(=O)O` (stereo not shown) [Beispiel 75, Kaliumsalz der 2-Methyl-3-zyklohexenkarbonsäure]: in data set [3], the “Kornzahl der Ähre bei freier Bestäubung” value is given as 43,0, the “Kornzahl der Ähre im Isolator” value was 0,0, the “Prozentsatz der Sterilität” value is on record as 100,0% and the “Prozentsatz des Ansetzens der Körner bei freier Bestäubung” value is reported as 95,0%.

The record behind these values is patent publication EP0364581A1, “METHOD OF STERILIZING PLANT POLLEN” (VSESOJUZNY NAUCHNO-ISSLEDOVATELSKY INST. SELSKOKHOZYAISTV. …, priority 1988, dated 1989).
